The record followed here is patent US8865623B2, “Herbicidally active cyclic diones and derivatives thereof, processes for their preparation, compositions, and method of controlling weeds” (Syngenta Limited, priority 2009, dated 2014).

Holding throughout (type): in vivo
Assay [1] has as its system Alopecurus myosuroides (ALOMY). In words: Post-emergence herbicidal activity, glasshouse pot test. Particulars: Alopecurus myosuroides, 312 h, rate 250 g/ha, evaluated after 13 days, glasshouse, read-out: Post-emergence activity ALOMY (100=total damage to plant; 0=no damage to plant). The gist of the method: (§1)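 Spray solution: technical a.i. formulated in acetone/water (50:50) with 0.5% Tween 20, diluted in water. Applied to pots 1 d (pre) or 8 d (post) after sowing; glasshouse 24/16° C day/night, 14 h light, 65% humidity. Rated at 13 d, 0–100 damage.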

Assay [2] deals with Lolium perenne (LOLPE). The description is as above. The settings on record: Lolium perenne, 312 h, rate 250 g/ha, evaluated after 13 days, glasshouse, read-out: Post-emergence activity LOLPE (100=total damage to plant; 0=no damage to plant). The gist of the method:
as §1

Assay [3] concerns Echinochloa crus-galli (ECHCG). Described as above. Particulars: Echinochloa crus-galli, 312 h, rate 250 g/ha, evaluated after 13 days, glasshouse, read-out: Post-emergence activity ECHCG (100=total damage to plant; 0=no damage to plant). The gist of the method:
as §1

Assay [4] has as its system Avena fatua (AVEFA). The assay is described as above. The settings on record: Avena fatua, 312 h, rate 250 g/ha, evaluated after 13 days, glasshouse, read-out: Post-emergence activity AVEFA (100=total damage to plant; 0=no damage to plant). The gist of the method:
as §1

Assay [5] relates to Alopecurus myosuroides (ALOMY). In words: Pre-emergence herbicidal activity, glasshouse pot test. The settings on record: Alopecurus myosuroides, 312 h; Rate 250 g/ha; pre-emergence spray; evaluated after 13 days; read-out: Pre-emergence activity ALOMY (100=total damage to plant; 0=no damage to plant). The gist of the method: as §1
Assay [6] has as its system Lolium perenne (LOLPE). The description is as above. The settings on record: Lolium perenne, 312 h; Rate 250 g/ha; pre-emergence spray; evaluated after 13 days; read-out: Pre-emergence activity LOLPE (100=total damage to plant; 0=no damage to plant). The gist of the method: as §1
In assay [7] the test system is Echinochloa crus-galli (ECHCG). The description is as above. Particulars: Echinochloa crus-galli, 312 h; Rate 250 g/ha; pre-emergence spray; evaluated after 13 days; read-out: Pre-emergence activity ECHCG (100=total damage to plant; 0=no damage to plant). The gist of the method: as §1
Assay [8] concerns Avena fatua (AVEFA). Described as above. The settings on record: Avena fatua, 312 h; Rate 250 g/ha; pre-emergence spray; evaluated after 13 days; read-out: Pre-emergence activity AVEFA (100=total damage to plant; 0=no damage to plant). The gist of the method: as §1

For `CCc1ccc(Oc2ccc(C(F)(F)F)c(C#N)c2)cc1C1=C(O)CC2(CCOCC2)CC1=O` [Example A-266], the pest or weed control at 250 g/ha amounted to 90% in assay [1]; 70% with Lolium perenne (LOLPE) [2]; 100% in assay [3]; 90% in the assay on Avena fatua (AVEFA) [4]; 50% in assay [5]; 90% in the assay with Lolium perenne (LOLPE) [6]. The pest or weed control at 250 g/ha in assay [7] came out at 90%; in the assay with Avena fatua (AVEFA) [8] it was 50%.

In the case of `CCc1ccc(Oc2ncc(C(F)(F)F)cc2Cl)cc1C1=C(O)[C@H]2CC[C@H](C2)C1=O` [Example A-335], the pest or weed control at 250 g/ha in assay [1] came to 100%; in the assay with Lolium perenne (LOLPE) [2], 100%; in assay [3], 100%; with Avena fatua (AVEFA) [4], 90%; in assay [5], 100%; in the assay on Lolium perenne (LOLPE) [6], 100%. Besides, the figures for the pest or weed control at 250 g/ha (in assay [7]; in the assay on Avena fatua (AVEFA) [8]) were 100% and 90%, respectively.

Consider `CCc1ccc(Oc2ccc(C(F)(F)F)c(C#N)c2)cc1C1=C(O)[C@@H]2CC[C@](C)(C1=O)C2(C)C` [Example A-323], for which the pest or weed control at 250 g/ha in assay [1] stood at 60%; in the assay on Lolium perenne (LOLPE) [2], 70%; in assay [3] it was 90%; with Avena fatua (AVEFA) [4] it was 80%; in assay [5], 70%; with Lolium perenne (LOLPE) [6], 100%. The pest or weed control at 250 g/ha in assay [7] worked out at 100%; in the assay on Avena fatua (AVEFA) [8], 80%.

With `CCc1ccc(Oc2ccc(OC)nn2)cc1C1=C(O)C(C)(C)OC(C)(C)C1=O` [Example A-124], the pest or weed control at 250 g/ha in assay [1] came out at 10%; in the assay on Lolium perenne (LOLPE) [2], 10%; in assay [3], 40%; in the assay on Avena fatua (AVEFA) [4], 0%; in assay [5] it was 0%; in the assay on Lolium perenne (LOLPE) [6], 0%. Besides, the values for the pest or weed control at 250 g/ha (in assay [7]; in the assay with Avena fatua (AVEFA) [8]) were 10% and 0%, respectively.

As to `CCc1ccc(Oc2ccc(C#N)cc2)cc1C1=C(O)C(C)(C)OC(C)(C)C1=O` [Example A-79], the pest or weed control at 250 g/ha was found to be 100% in assay [1]; 80% in the assay on Lolium perenne (LOLPE) [2]; 100% in assay [3]; 60% in the assay with Avena fatua (AVEFA) [4]; 80% in assay [5]; 90% with Lolium perenne (LOLPE) [6]. In addition, the pest or weed control at 250 g/ha in assay [7] was found to be 100%; in the assay with Avena fatua (AVEFA) [8], 80%.

In the case of `CCc1ccc(Oc2ccc(C(F)(F)F)cc2[N+](=O)[O-])cc1C1=C(O)[C@@H]2CC[C@](C)(C1=O)C2(C)C` [Example A-327], the pest or weed control at 250 g/ha in assay [1] was 80%; in the assay on Lolium perenne (LOLPE) [2] it was 70%; in assay [3], 100%; with Avena fatua (AVEFA) [4] it was 90%; in assay [5] it was 70%; with Lolium perenne (LOLPE) [6], 90%. Besides, the pest or weed control at 250 g/ha in assay [7] worked out at 100%; in the assay with Avena fatua (AVEFA) [8], 20%.

Turning to `CC1(C)OC(C)(C)C(O)=C(c2cc(Oc3ccc4cc(Cl)ccc4n3)ccc2C2CC2)C1=O` [Example A-312], the pest or weed control at 250 g/ha came to 100% in assay [1]; 100% in the assay on Lolium perenne (LOLPE) [2]; 100% in assay [3]; 100% with Avena fatua (AVEFA) [4]; 70% in assay [5]; 100% in the assay on Lolium perenne (LOLPE) [6]. The pest or weed control at 250 g/ha in assay [7] amounted to 100%; with Avena fatua (AVEFA) [8], 70%.

Take `CCc1ccc(Oc2ccc(Cl)cc2Cl)cc1C1=C(O)CC(C)(C)CC1=O` [Example A-71]: the pest or weed control at 250 g/ha in assay [1] came out at 60%; with Lolium perenne (LOLPE) [2] it was 60%; in assay [3] it was 90%; in the assay on Avena fatua (AVEFA) [4] it was 30%; in assay [5] it was 30%; in the assay with Lolium perenne (LOLPE) [6] it was 40%. The pest or weed control at 250 g/ha is 90% in assay [7] and 0% with Avena fatua (AVEFA) [8].

Take `CCc1ccc(Oc2ccc(F)cc2)cc1C1=C(O)C(C)(C)OC(C)(C)C1=O` [Example A-22]: the pest or weed control at 250 g/ha in assay [1] is 20%; in the assay on Lolium perenne (LOLPE) [2], 30%; in assay [3], 100%; in the assay on Avena fatua (AVEFA) [4] it was 30%; in assay [5], 20%; in the assay on Lolium perenne (LOLPE) [6], 60%. Moreover, the pest or weed control at 250 g/ha in assay [7] worked out at 80%; in the assay on Avena fatua (AVEFA) [8], 10%.

Take `CCc1ccc(Oc2ccc(Cl)c(C(F)(F)F)c2)cc1C1=C(O)C(C)(C)OC(C)(C)C1=O` [Example A-183]: the pest or weed control at 250 g/ha amounted to 70% in assay [1]; 40% with Lolium perenne (LOLPE) [2]; 90% in assay [3]; 50% in the assay with Avena fatua (AVEFA) [4]; 30% in assay [5]; 80% in the assay with Lolium perenne (LOLPE) [6]. In addition, the pest or weed control at 250 g/ha in assay [7] was found to be 60%; with Avena fatua (AVEFA) [8], 20%.

Consider `CCc1ccc(Oc2ccc(C(F)(F)F)c(Cl)c2)cc1C1=C(O)C(C)(C)OC(C)(C)C1=O` [Example A-101], for which the pest or weed control at 250 g/ha in assay [1] was 100%; with Lolium perenne (LOLPE) [2] it was 100%; in assay [3], 100%; in the assay on Avena fatua (AVEFA) [4], 90%; in assay [5] it was 60%; in the assay on Lolium perenne (LOLPE) [6], 90%. Also, the pest or weed control at 250 g/ha in assay [7] was 90%; in the assay on Avena fatua (AVEFA) [8], 80%.

For `CCc1ccc(Oc2ccc(Cl)cc2Cl)cc1C1=C(O)[C@@H]2CC[C@](C)(C1=O)C2(C)C` (single isomer, unassigned) [Example A-94], the pest or weed control at 250 g/ha in assay [1] stood at 10%; in the assay with Lolium perenne (LOLPE) [2], 20%; in assay [3], 40%; in the assay with Avena fatua (AVEFA) [4], 0%; in assay [5], 40%; in the assay with Lolium perenne (LOLPE) [6] it was 100%. For the same molecule, the results for the pest or weed control at 250 g/ha (in assay [7]; in the assay with Avena fatua (AVEFA) [8]) were 90% and 20%, respectively.
